Assay results published in patent US20250057808A1, “COMPOSITION COMPRISING BETA LACTAM FOR TREATING ALCOHOL DEPENDENCE AND ALCOHOL ASSOCIATED DISEASES OR CONDITIONS” (Temple University of the Commonwealth System of Higher …, priority 2023, published 2025).
Entries after “also recorded” stand apart in the source; their conditions may differ.

Key:
PPAR-γ = experiment: Western blot PPAR-γ expression in liver; format: in vivo, P rats; conditions: MC-100093 50 mg/kg or ceftriaxone 200 mg/kg i.p. 5 days; between all groups
Experimental: Western Blot assay was performed to measure changes in the expression of GLT-1, xCT, mGluR1, mGluR5, PPAR-α, PPARγ, GAPDH and β-tubulin in the NAc-core and NAc-shell as described in previous publications. A lysis buffer containing protease and phosphatase inhibitors was used to generate a homogenate of liver, Nac-core, and Nac-shell samples. The amount of protein was quantified using a detergent compatible protein assay (Bio-Rad, Hercules, CA, USA) for each sample. Samples were mixed with laemmli dye and loaded with equal amounts on polyacrylamide gels (10%), which separated the proteins using electrophoresis. After that, polyvinylidene difluoride (PVDF) membranes were used to transfer the proteins electrophoretically from the gels. Membranes were incubated in 5% free-fat milk in Tris-buffered saline with Tween-20 (TBST) for 30-60 minutes at room temperature. Membranes were then incubated with appropriate primary antibodies overnight at 4° C.: rabbit anti-GLT-1 (1:5000, Abcam, ab41621), rabbit anti-xCT (1:2000, Abcam, ab175186), rabbit anti-mGluR1 (1:1000, Abcam, ab82211), rabbit anti-mGluR5 (1:1000, Abcam, ab76316), rabbit anti-PPAR-α (1:1000, Abcam, ab24509), and rabbit anti-PPARγ (1:1000, Abcam, ab209350). […]

xCT = experiment: Western blot xCT expression in NAc-core, NAc-shell and liver (50 mg/kg study); format: in vivo, P rats; conditions: MC-100093 50 mg/kg or ceftriaxone 200 mg/kg i.p. 5 days; for Protein expression of xCT in the NAc-shell: vs Ethanol group
Experimental: We used micro-punch procedure to dissect the subregions of the NAc such as NAc-core and NAc-shell as well as the subregions of prefrontal cortex such as infralimbic (IL) and prelimbic (PL) from the brain on day 6 after the last injection day. P rats were removed from the cage and rapidly euthanized by CO2 inhalation followed by rapid decapitation with a guillotine. Brains were isolated and immediately frozen on dry ice and stored at −80° C. The stereotaxic coordinates provided by Paxinos and colleague's rat brain stereotactic atlas was used to isolate NAc-core and NAc-shell using a cryostat apparatus (−20° C.), which then kept at −80° C. for later western blot analyses.
Western Blot assay was performed to measure changes in the expression of GLT-1, xCT, mGluR1, mGluR5, PPAR-α, PPARγ, GAPDH and β-tubulin in the NAc-core and NAc-shell as described in previous publications. A lysis buffer containing protease and phosphatase inhibitors was used to generate a homogenate of liver, Nac-core, and Nac-shell samples. The amount of protein was quantified using a detergent compatible protein assay (Bio-Rad, Hercules, CA, USA) for each sample. Samples were mixed with laemmli dye and loaded with equal amounts on polyacrylamide gels (10%), which separated the proteins using electrophoresis. After that, polyvinylidene difluoride (PVDF) membranes were used to transfer the proteins electrophoretically from the gels. Membranes were incubated in 5% free-fat milk in Tris-buffered saline with Tween-20 (TBST) for 30-60 minutes at room temperature. Membranes were then incubated with appropriate primary antibodies overnight at 4° C.: rabbit anti-GLT-1 (1:5000, Abcam, ab41621), rabbit anti-xCT (1:2000, Abcam, ab175186), rabbit anti-mGluR1 (1:1000, Abcam, ab82211), rabbit anti-mGluR5 (1:1000, Abcam, ab76316), rabbit anti-PPAR-α (1:1000, Abcam, ab24509), and rabbit anti-PPARγ (1:1000, Abcam, ab209350). Mouse anti-β-tubulin (1:1000; BioLegend) was used as a loading control antibody for the brain samples and rabbit anti-GAPDH (1:5000; cell signaling) was used as a loading control antibody for the liver samples. Membranes were washed five times on the next day with TBST followed by incubation with appropriate secondary antibody (1:5000) for 90 minutes at room temperature. Chemiluminescent reagents (Super Signal West Pico, Pierce Inc.) were used to detect the proteins using a GeneSys imaging system to develop the digitized blot images. Water-control group data were represented as 100% and all other values were expressed relative to control group to detect changes in the expression of the protein of interest in the brain and liver samples.
All statistical analyses were conducted with Graphpad Prism software, with p-values of 0.05 or less being statistically significant. We performed a two-way (mixed model) ANOVA followed by Bonferroni multiple comparison post-hoc test to analyze 24 h ethanol consumption, 24 h water consumption, and daily body weight. For the Western blot and oil red O staining analysis, we performed one-way ANOVA with Newman-Keuls as a post hoc multiple comparison test to measure differences between groups as a percentage (relative to control values).

[1] = system: gram-positive and gram-negative bacteria; conditions: cited from earlier work
TNF-α = experiment: Western blot TNF-α in subregions of mPFC and NAc; format: in vivo, Male P rats
Experimental: All P rats were euthanized by CO2 inhalation and decapitated with a guillotine 24 hours after the final i.p. injection was administered on Day 6 of Week 6. Brains were removed and immediately frozen on dry ice and stored at −80° C. The mPFC subregions (infralimbic cortex and prelimbic cortex) and NAc subregions (core and shell) were dissected using a cryostat machine kept at −20° C. Surgical blades were used to dissect all brain regions following visualized landmarks using the stereotaxic coordinates provided by Paxinos and colleague's rat brain stereotactic atlas. All brain regions were stored in −80° C. Western Blot analyses.
Western blot was performed to determine the expression of BDNF, TNF-α, RAGE, HMGβ-1, and β-tubulin in the subregions of mPFC and NAc as preformed in previous studies.
Brain samples were lysed with a lysing buffer containing protease inhibitors. The amount of protein in each sample was quantified using a detergent compatible protein assay (Bio-Rad, Hercules, CA, USA). Polyacrylamide gels (10%) were loaded with the lysate mixture, and proteins were separated using gel electrophoresis for 1 hour. Proteins were then transferred from the gels onto Polyvinylidene difluoride (PVDF) membranes (BioRad). After transfer, membranes were incubated for 30 minutes in a mixture of nonfat milk in 1×Tris-buffered saline with Tween-20 (TBST) at room temperature. Membranes were then incubated at 4° C. for 24 hours with primary antibodies: anti-rabbit BDNF (1:1000, Abeam, #ab108319), anti-rabbit TNF-α (1:500, Abeam, #ab9739), anti-rabbit HMGβ-1 (1:500, Abeam, #ab18256), and anti-rabbit RAGE (1:1000, Abeam, #ab37407). Anti-mouse-β-tubulin (1:1000, Cell Signaling Technology, #D71G9) was used as a loading control antibody. After incubating for 24 hours, secondary antibody such as donkey anti-rabbit (1:4000, Invitrogen, #31458) or anti-mouse (1:4000, Cell Signaling, #7076S) was added to the membrane for 1 hour at room temperature. The membranes were then washed with 1×TBST three times for 5 minutes each and then dried. Membranes were then incubated in chemiluminescent reagents (Super Signal West Pico, Pierce Inc.) for 2 minutes. Blot images were developed using ChemiDoc. Imaging System and ImageJ software version 1.53a were used to quantify and analyze the expression of BDNF, TNF-α, RAGE, HMGβ-1, and β-tubulin.
The data for the water/saline control group were expressed as 100% based on the values corresponding to the ethanol/saline and ethanol/MC-100093 groups for each set of blotting. Thus, the expression of selected proteins for each group (ethanol/saline group or ethanol/MC-100093 group) was calculated relative to the water/saline control group being set to 100%.
Statistical analyses were performed using GraphPad Prism Version 10. Two-way repeated measures ANOVA followed by Bonferroni post-hoc tests were used to compare water and ethanol intake, and body weight, amongst water group, ethanol/saline group and ethanol/MC-100093 group. A one-way ANOVA test was performed to compare the expression of the studied proteins in selected brain regions in water/saline, ethanol/saline and ethanol/MC-100093 groups. Statistical significance was determined by a p-value of or less than 0.05.

[2] = rodent liver microsomes in vitro; cited from earlier work
plasma protein = conditions: cited from earlier work
[3] = 100 mg/kg i.p., compared to ethanol/saline group

Compound: C[C@@H](O)[C@H]1C(=O)N[C@@H]1[C@@H](C)C(=O)N1CCN(C)CC1 [MC-100093]
- Protein expression of PPAR-γ in the liver (PPAR-γ): not changed significantly
- Protein expression of xCT in the NAc-core (xCT; among all groups): non-significant difference; also recorded: no significant difference
- Protein expression of xCT in the liver (xCT; between all groups): no significant differences
- Protein expression of xCT in the NAc-shell (xCT): significantly higher level of xCT; also recorded: normalized GLT-1 and xCT levels in the NAc-shell
- Protein expression of xCT in the NAc-shell (xCT; listed as MC-100095): significantly increased xCT expression
- Antimicrobial / antibiotic activity [1]: without any antibiotic action; also recorded: no antibiotic activity; also recorded: no antibiotic actions; also recorded: lacking the antibacterial properties; also recorded: lacks antimicrobial activity; also recorded: does not have any antibiotic action
- TNF-α expression in the IL (TNF-α; [3]): decreased significantly TNF-α expression
- TNF-α expression in the NAc core (TNF-α; [3]): decreased significantly TNF-α expression
- TNF-α expression in the NAc shell (TNF-α; [3]): decreased TNF-α expression
- TNF-α expression in the PL (TNF-α; [3]): significantly decreased the expression of TNF-α
- TNF-α expression in IL, PL, NAc core and NAc shell (summary) (TNF-α; post-treatment with MC-100093 100 mg/kg i.p., 100 mg/kg): normalized TNF-α expression in all these brain regions; also recorded: attenuated ethanol-induced upregulation of pro-inflammatory cytokines such as TNF-a and HMGB1
- Stability in liver microsomes [2]: high stability
- Binding to plasma protein (plasma protein): low binding to plasma protein
